Test system: patients with MDD
Assay: Double-masked, placebo-controlled clinical study of tasimelteon in patients with MDD (NCT01428661), Hamilton Depression Scale
Type: in vivo, human
Experimental: A large clinical study was conducted to evaluate the effects of tasimelteon on depressive symptoms in patients with MDD. Details of the study design are set out in study number NCT01428661, available at clinicaltrials.gov. Aspects of the study relevant to the claimed invention are described below.
A total of 507 patients with MDD were enrolled in a double-masked, placebo-controlled study randomized on either tasimelteon 20 mg (n=254) or placebo (n=253). Patients were assessed at baseline and weekly for eight weeks on a number of depression scales, including the Hamilton Depression Scale (HAMD).

**Q.** `CCC(=O)NC[C@@H]1C[C@H]1c1cccc2c1CCO2` (relative stereo) [Tasimelteon, trans-N-[[2-(2,3-dihydrobenzofuran-4-yl)cycloprop-1yl]methyl] propanamide] was tested. Which “improvement on the HAMD scale” value (African-American MDD patients, at eight weeks, tasimelteon 20 mg (n=78), p=0.018 vs placebo) did it give?
**A.** Its value is 9.9 points.

**Q.** What about the “responder analysis (improvement in the HAMD scale of 50% or greater from baseline), patients showing improvement” value (African-American MDD patients, at eight weeks, tasimelteon 20 mg, p=0.0019 vs placebo) of the same compound?
**A.** Its value is 59%.

**Q.** What about the “improvement from baseline on the HAMD scale” value (all randomized MDD patients, tasimelteon 20 mg (n=254), p=0.57 vs placebo) of the same compound?
**A.** The value was 8.1 points.

From US20220280471A1, “Treatment of Affective Disorders” (Vanda Pharmaceuticals Inc., priority 2017, published 2022)
